From ChEMBL document CHEMBL3600294, “Synthesis, molecular docking and biological evaluation of 3-arylfuran-2(5H)-ones as anti-gastric ulcer agent” (Bioorg Med Chem, 2015)
In brackets after ≈: the same amount, converted by molar mass.

How the values were obtained:
[1] = Inhibition of Staphylococcus aureus TyrRS expressed in Escherichia coli using [ring-3,5-3H]-tyrosine preincubated for 10 mins assessed as aminoacylation by liquid scintillation counting
[2] = biological target: Urease subunit alpha/Urease subunit beta (Helicobacter pylori (strain ATCC 700392 / 26695) (Campylobacterpylori), UniProt P69996); test: Inhibition of Helicobacter pylori urease assessed as ammonia production preincubated for 1.5 hrs by indophenol method
Urease subunit alpha/Urease subunit beta, sequence (P69996 whole entry): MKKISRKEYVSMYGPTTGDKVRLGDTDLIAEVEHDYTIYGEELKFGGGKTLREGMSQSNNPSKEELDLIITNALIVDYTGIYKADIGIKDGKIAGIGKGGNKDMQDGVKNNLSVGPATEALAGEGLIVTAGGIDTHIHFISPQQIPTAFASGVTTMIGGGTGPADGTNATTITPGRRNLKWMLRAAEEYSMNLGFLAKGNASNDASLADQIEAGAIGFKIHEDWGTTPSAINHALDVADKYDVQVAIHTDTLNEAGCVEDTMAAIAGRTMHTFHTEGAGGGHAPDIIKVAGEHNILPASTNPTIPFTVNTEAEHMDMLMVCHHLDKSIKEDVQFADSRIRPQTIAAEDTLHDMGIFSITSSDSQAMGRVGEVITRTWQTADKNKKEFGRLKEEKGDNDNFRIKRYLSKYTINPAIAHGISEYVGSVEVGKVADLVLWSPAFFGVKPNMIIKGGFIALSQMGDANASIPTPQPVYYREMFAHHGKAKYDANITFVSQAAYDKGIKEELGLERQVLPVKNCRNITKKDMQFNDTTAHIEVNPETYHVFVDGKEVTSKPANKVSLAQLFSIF
Urease subunit alpha/Urease subunit beta, sequence (P14916 whole entry, further chain): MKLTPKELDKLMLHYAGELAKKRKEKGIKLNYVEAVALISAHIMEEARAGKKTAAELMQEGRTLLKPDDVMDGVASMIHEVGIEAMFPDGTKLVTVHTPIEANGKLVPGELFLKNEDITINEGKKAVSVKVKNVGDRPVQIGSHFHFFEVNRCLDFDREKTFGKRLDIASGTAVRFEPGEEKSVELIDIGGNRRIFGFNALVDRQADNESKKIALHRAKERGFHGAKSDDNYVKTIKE

[3] = Antioxidant activity assessed as DPPH radical scavenging activity incubated for 30 mins
Helicobacter pylori = test: Antibacterial activity against Helicobacter pylori ATCC 43504 after 24 hrs by microdilution broth method; format: functional; conditions: ATCC 43504, 24 h

| SMILES | IC50 [1] [µM] | IC50 [2] [µM] | IC50 ([3]; DPPH radical solution) [µM] | MIC50 (Helicobacter pylori) [µg/mL] | IC50 [3] [µM] |
| --- | --- | --- | --- | --- | --- |
| O=C1OCC(OCCN2CCOCC2)=C1c1ccc(O)cc1 | 0.1 | – | – | – | – |
| O=C1OCC(O)=C1c1ccccc1 | 5.6 | 89 | 13.5 | 4.7 (≈ 26.7 µM) | – |
| O=C1OCC(O)=C1c1ccccc1F | 1.9 | 75 | > 100 | 2.7 (≈ 13.9 µM) | – |
| O=C1OCC(O)=C1c1ccccc1Cl | – | 68 | > 100 | 36.7 (≈ 174 µM) | – |
| Cc1ccccc1C1=C(O)COC1=O | 0.6 | 65 | 45.6 | 1.5 (≈ 7.89 µM) | – |
| O=C1OCC(O)=C1c1ccccc1OCc1ccccc1 | 2.5 | 50 | > 100 | 13.8 (≈ 48.9 µM) | – |
| O=C1OCC(O)=C1c1cccc(F)c1 | 27.8 | 62 | 23.5 | > 100 | – |
| O=C1OCC(O)=C1c1cccc(Cl)c1 | 15.4 | 45.3 | 16.5 | 36.7 (≈ 174 µM) | – |
| O=C1OCC(O)=C1c1cccc(Br)c1 | 13.1 | 81.8 | 11.2 | 24.5 (≈ 96.1 µM) | – |
| Cc1cccc(C2=C(O)COC2=O)c1 | 1.1 | 31.1 | 8.2 | 2.6 (≈ 13.7 µM) | – |
| O=C1OCC(O)=C1c1cccc(C(F)(F)F)c1 | 17.5 | 64.4 | 110 | 28.2 (≈ 115 µM) | – |
| O=C1OCC(O)=C1c1cccc(OCc2ccccc2)c1 | – | 77.5 | 31.5 | 31.7 (≈ 112 µM) | – |
| O=C1OCC(O)=C1c1ccc(F)cc1 | – | 40.6 | > 100 | 27.7 (≈ 143 µM) | – |
| O=C1OCC(O)=C1c1ccc(Cl)cc1 | – | > 100 | 18.5 | 49.3 (≈ 234 µM) | – |
| O=C1OCC(O)=C1c1ccc(Br)cc1 | – | > 100 | 16.8 | 61.3 (≈ 240 µM) | – |
| Cc1ccc(C2=C(O)COC2=O)cc1 | 8.6 | > 100 | 12.3 | 15.2 (≈ 79.9 µM) | – |
| O=C1OCC(O)=C1c1ccc(OCc2ccccc2)cc1 | 30 | 10.5 | 34 | 52.1 (≈ 185 µM) | – |
| O=C1OCC(O)=C1c1ccc(Cl)c(Cl)c1 | – | > 100 | 28.7 | > 100 | – |
| COc1ccc(C2=C(O)COC2=O)cc1OC | – | 36.5 | 20.4 | 46.2 (≈ 196 µM) | – |
| CCOc1ccc(C2=C(O)COC2=O)cc1OCC | – | 91.7 | 23.4 | 72.5 (≈ 274 µM) | – |
| O=C1OCC(O)=C1c1ccc(Cl)cc1Cl | – | > 100 | > 100 | > 100 | – |
| CC1(C)S[C@@H]2[C@H](NC(=O)[C@H](N)c3ccc(O)cc3)C(=O)N2[C@H]1C(=O)O [AMOXICILLIN] | – | – | – | 0.8 (≈ 2.19 µM) | – |
| O=C1O[C@H]([C@@H](O)CO)C(O)=C1O [ASCORBIC ACID] | – | – | – | – | 12.1 |
